Assays:
Type in all cases: functional
[1] = test system: Staphylococcus aureus; assay: Antibacterial activity against Staphylococcus aureus KCTC 209 after 24 hrs by broth microdilution method; conditions: KCTC 209, 24 h
[2] = test system: Staphylococcus aureus; assay: Antibacterial activity against Staphylococcus aureus KCTC 503 after 24 hrs by broth microdilution method; conditions: KCTC 503, 24 h
[3] = test system: Staphylococcus aureus; assay: Antibacterial activity against Staphylococcus aureus RN4220 after 24 hrs by broth microdilution method; conditions: RN4220, 24 h
[4] = test system: Escherichia coli; assay: Antibacterial activity against Escherichia coli CCARM 1356 after 24 hrs by broth microdilution method; conditions: CCARM 1356, 24 h
[5] = test system: Staphylococcus aureus; assay: Antibacterial activity against methicillin-resistant Staphylococcus aureus CCARM 3167 clinical isolate after 24 hrs by broth microdilution method; conditions: CCARM 3167, 24 h
[6] = test system: Staphylococcus aureus; assay: Antibacterial activity against methicillin-resistant Staphylococcus aureus CCARM 3506 clinical isolate after 24 hrs by broth microdilution method; conditions: CCARM 3506, 24 h
[7] = test system: Staphylococcus aureus; assay: Antibacterial activity against quinolone-resistant Staphylococcus aureus CCARM 3505 clinical isolate after 24 hrs by broth microdilution method; conditions: CCARM 3505, 24 h
[8] = test system: Staphylococcus aureus; assay: Antibacterial activity against quinolone-resistant Staphylococcus aureus CCARM 3519 clinical isolate after 24 hrs by broth microdilution method; conditions: CCARM 3519, 24 h

Measured: MIC

O=Cc1ccc(/C=C/C(=O)c2ccc(Cl)cc2Cl)cc1
> 64 µg/mL: all assays above

O=Cc1ccc(/C=C/C(=O)c2ccccc2F)cc1
> 64 µg/mL: all assays above

O=Cc1ccc(/C=C/C(=O)c2ccc(F)cc2)cc1
> 64 µg/mL: all assays above

O=Cc1ccc(/C=C/C(=O)c2ccccc2Cl)cc1
> 64 µg/mL: all assays above

O=Cc1ccc(/C=C/C(=O)c2cccc(Cl)c2)cc1
> 64 µg/mL: all assays above

O=Cc1ccc(/C=C/C(=O)c2ccc(Cl)cc2)cc1
> 64 µg/mL: all assays above

O=Cc1ccc(/C=C/C(=O)c2ccccc2Br)cc1
> 64 µg/mL: all assays above

O=Cc1ccc(/C=C/C(=O)c2cccc(Br)c2)cc1
> 64 µg/mL: all assays above

O=Cc1ccc(/C=C/C(=O)c2ccc(Br)cc2)cc1
> 64 µg/mL: all assays above

Cc1ccc(C(=O)/C=C/c2ccc(C=O)cc2)cc1
> 64 µg/mL: all assays above

Cc1ccc(C(=O)/C=C/c2ccc(C=O)cc2)c(C)c1
> 64 µg/mL: all assays above

COc1ccccc1C(=O)/C=C/c1ccc(C=O)cc1
> 64 µg/mL: all assays above

COc1cccc(C(=O)/C=C/c2ccc(C=O)cc2)c1
> 64 µg/mL: all assays above

COc1ccc(C(=O)/C=C/c2ccc(C=O)cc2)cc1
> 64 µg/mL: all assays above

CC(=O)Nc1ccc(C(=O)/C=C/c2ccc(C=O)cc2)cc1
> 64 µg/mL: all assays above

O=Cc1ccc(/C=C/C(=O)c2ccccc2)cc1
> 64 µg/mL: all assays above

O=Cc1ccc(/C=C/C(=O)c2ccc3ccccc3c2)cc1
> 64 µg/mL: all assays above

O=Cc1ccc(OCc2cccc(F)c2)cc1
> 64 µg/mL: all assays above

O=Cc1ccc(OCc2ccc(F)cc2)cc1
> 64 µg/mL: all assays above

O=Cc1ccc(OCc2ccccc2Cl)cc1
> 64 µg/mL: all assays above

O=Cc1ccc(OCc2cccc(Cl)c2)cc1
> 64 µg/mL: all assays above

From ChEMBL document CHEMBL2086385, “Synthesis and antimicrobial evaluation of L-phenylalanine-derived C5-substituted rhodanine and chalcone derivatives containing thiobarbituric acid or 2-thioxo-4-thiazolidinone” (2012)
